Results on nine compounds are retold here after patent US8058227B2, “Method of treating fibrosis in a subject in need thereof comprising administering a composition comprising a CSD” (Medical University of South Carolina, priority 2006, dated 2011).

Entries after “also recorded” stand apart in the source; their conditions may differ. Where no end group is shown, it is not given here.

Assay [1] relates to scleroderma lung fibroblasts (SLF). Nature of the assay: Kinase (signaling) inhibitor treatment of SLF, Western blotting. It is filed as cell-based, human. On the set-up: key to Collagen / Tenascin-C / ASMA / Ph-ERK / Ph-JNK / Ph-Akt: a decrease ↓; an increase ↑; no effect —. To be noted: for ASMA expression / Akt activation / ERK activation / JNK activation / collagen expression / tenascin-C expression: 10 μM inhibitor, result in words; for ASMA / Ph-Akt / Ph-ERK / Ph-JNK / Collagen / Tenascin-C: inhibitor 10 μM, serum-free medium, Western blotting; for ASMA / Ph-Akt / Ph-ERK / Ph-JNK: cell layer; for Collagen / Tenascin-C: culture medium. The text has this:
(§1) Fibroblasts were derived from lung tissue obtained at autopsy from scleroderma patients (SLF) and from age-, race-, and sex-matched normal subjects (NLF) and cultured as previously described (44). Cells were used in passages 2-4. The group of scleroderma patients fulfilled the criteria of American college of Rheumatology for the diagnosis of scleroderma with lung involvement. Normal human lung tissue was obtained from the Brain and Tissue Bank for Developmental Disorders (Baltimore, Md.) or from the National Disease Research Interchange (Philadelphia, Pa.). Scleroderma lung tissue was obtained from the Division of Pathology and Laboratory Medicine at the Medical University of South Carolina (MUSC). The study was approved by the Institutional Review Board for Human Subject Research at the MUSC.
(§2) U0126 (MEK inhibitor), SP600125 (JNK inhibitor), LY294002 (PI3 kinase inhibitor) and Akt inhibitor VIII were purchased from Calbiochem and dissolved in DMSO (mM). Cells in 6-well plates were treated with 10 μM of inhibitors in serum-free medium for 6 h (U0126) or 24 h for the other inhibitors prior to the harvesting of cells and medium.
(§3) Cell layers were harvested in boiling SDS-PAGE sample buffer; medium was dialyzed, lyophilized, and resuspended in sample buffer. Aliquots of culture medium or of cell layer representing material derived from the same number of cells was probed using the following primary antibodies and appropriate secondary antibodies. Culture medium: goat anti-human collagen I (AB758P) and rabbit anti-human tenascin-C (AB19011) from Chemicon International (Temecula, Calif.). Cell layer: rabbit antibodies against PKCα (sc-208), PKCε (sc-214), activated JNK (sc-12882), activated Akt Thr 308 (sc-166646R) and caveolin-1 (sc-894) from Santa Cruz Biotechnology (Santa Cruz, Calif.); rabbit antibodies against ERK 1/2 (9102), activated ERK 1/2 (9106), JNK (9252), Akt (9272), MEK 1/2 (9122), and activated MEK 1/2 (9121) from Cell Signaling (Beverly, Mass.); mouse monoclonal anti-ASMA (clone 1A4) from Sigma (Saint Louis, Mo.), and mouse monoclonal anti-actin (MAB1501) from Chemicon International (Temecula, Calif.).
(§4) Immunoreactive bands were quantified by densitometry using the Image 1.32J NIH software. For statistical analysis the raw densitometric data were processed and analyzed using the Prism 3.0 (GraphPad Software Inc.) statistical analysis software.

The subject of assay [2] is normal lung fibroblasts (NLF). Nature of the assay: Kinase (signaling) inhibitor treatment of NLF, Western blotting. The format is cell-based, human. More on the design: key to Collagen / Tenascin-C / ASMA / Ph-ERK / Ph-JNK / Ph-Akt: a decrease ↓; an increase ↑; no effect —. To be noted: for ASMA expression / Akt activation / ERK activation / JNK activation / collagen expression / tenascin-C expression: 10 μM inhibitor, result in words; for ASMA / Ph-Akt / Ph-ERK / Ph-JNK / Collagen / Tenascin-C: inhibitor 10 μM, serum-free medium, Western blotting; for ASMA / Ph-Akt / Ph-ERK / Ph-JNK: cell layer; for Collagen / Tenascin-C: culture medium.
Text: as §1, §2, §3, §4
For orientation: In western blotting, separated proteins are transferred to a membrane and probed.

For assay [3], the system named is scleroderma lung fibroblasts (SLF). Put plainly: Collagen and ASMA expression in SLF treated with CSD and its subdomains. The format is cell-based, human. Conditions: for ASMA expression: peptides at 1, 3, and 5 μM; for inhibition of collagen expression / inhibition of ASMA expression: 5 μM peptide. The procedure: (§5) The indicated cell types (NLF and SLF) were cultured as described with 0, 1, 3, or 5 μM of the indicated peptides. Collagen in the medium and ASMA and actin (loading control) in the cell layer were detected by Western blotting. Blots were quantified densitometrically. The level of collagen and ASMA in cells treated with no peptide (divided by the level of actin) was set to 100 arbitrary units. Because SLF express higher levels of collagen and ASMA than do NLF, 100 arbitrary of collagen in SLF is equivalent to 195 arbitrary units of collagen in NLF and 100 arbitrary units of ASMA in SLF is equivalent to 255 arbitrary units of ASMA in NLF. The data presented are the average of the densitometric quantification of three independent experiments.
(§6) To compare the activity of CSD to its subdomains, five subdomains [A (82-88 amino acids), B (89-95), C (96-101), AB (82-95) and BC (89-101)] were synthesized in fusion with the Antennapedia internalization sequence and added to culture medium at 1, 3, and 5 μM. […] Very different results were obtained when examining ASMA expression.

For assay [4], the system named is normal lung fibroblasts (NLF). Put plainly: Collagen and ASMA expression in NLF treated with CSD and its subdomains. It is filed as cell-based, human. Conditions: for ASMA expression: peptides at 1, 3, and 5 μM. As for the experimental part: as §5, §6
The subject of another assay is eNOS. Conditions: endothelial cells; Bernatchez et al. (4); cited from earlier work.
[5] abbreviates: any concentration tested (1, 3, and 5 μM).

As to `O=c1[nH]c2ccccc2n1C1CCN(Cc2ccc(-c3nc4cc5[nH]cnc5cc4nc3-c3ccccc3)cc2)CC1` [Akt inhibitor VIII], in assay [1], the ASMA expression result is “inhibited”, the Akt activation result is listed as “inhibited”, the ERK activation entry is listed as “enhanced” and the JNK activation entry is “enhanced”. Also, in assay [1], the collagen expression result is reported as “no effect”, the tenascin-C expression result is given as “no effect”, the ASMA result is given as “↓” and the Ph-Akt result is given as “↓”. Besides, in assay [1], the Ph-ERK result is on record as “↑”, the Ph-JNK entry is recorded as “↑”, the Collagen result was “—” and the Tenascin-C result is recorded as “—”. Besides, in assay [2], the ASMA expression result is “no effect”, the Akt activation result is on record as “inhibited”, the ERK activation entry is “enhanced” and the JNK activation entry is “no effect”. In addition, in assay [2], the collagen expression entry is recorded as “inhibited”, the tenascin-C expression result was “inhibited”, the ASMA entry was “—” and the Ph-Akt entry was “↓”. For the same compound, in assay [2], the Ph-ERK result is reported as “↑”, the Ph-JNK result was “—”, the Collagen result is “↓” and the Tenascin-C result is given as “↓”.
Consider `O=c1cc(N2CCOCC2)oc2c(-c3ccccc3)cccc12` [LY294002], for which, in assay [1], the JNK activation result is recorded as “no effect”, the ASMA result is on record as “↓”, the Ph-Akt result is reported as “↓” and the Ph-ERK entry is “↑”. Further, in assay [1], the Ph-JNK entry is recorded as “—”, the Collagen entry was “↓” and the Tenascin-C result is given as “↓”. Further, in assay [2], the ASMA expression result is on record as “no effect”, the JNK activation result is listed as “no effect”, the ASMA result is given as “—” and the Ph-Akt result is reported as “↓”. Moreover, in assay [2], the Ph-ERK entry is listed as “↑”, the Ph-JNK entry is given as “—”, the Collagen entry is recorded as “↓” and the Tenascin-C entry is reported as “↓”.
For the compound `N#CC(=C(/N)Sc1ccccc1N)/C(C#N)=C(\N)Sc1ccccc1N` [Peptide U0126, U0126], in assay [1], the ASMA expression entry is given as “unaffected; also recorded: little or no effect”, the Akt activation result is “little or no effect”, the ERK activation entry is recorded as “blocked” and the JNK activation entry is recorded as “little or no effect”. For the same compound, in assay [1], the collagen expression entry is reported as “blocked”, the tenascin-C expression result is given as “inhibited; also recorded: blocked”, the ASMA entry is on record as “—” and the Ph-Akt entry is reported as “—”. In addition, in assay [1], the Ph-ERK result is listed as “↓”, the Ph-JNK entry is “—”, the Collagen entry was “↓” and the Tenascin-C entry was “↓”. Moreover, in assay [2], the ASMA expression entry is “unaffected; also recorded: little or no effect”, the Akt activation result was “little or no effect”, the ERK activation result is reported as “blocked” and the JNK activation result is recorded as “little or no effect”. In addition, in assay [2], the collagen expression entry is recorded as “blocked”, the tenascin-C expression entry is recorded as “inhibited; also recorded: blocked”, the ASMA result is on record as “—” and the Ph-Akt entry was “—”. Further, in assay [2], the Ph-ERK result is given as “↓”, the Ph-JNK result was “—”, the Collagen result is on record as “↓” and the Tenascin-C entry was “↓”.
`Oc1c2ccccc2c2c3c(cccc13)N=N2` [SP600125]: in assay [1], the ASMA result was “↓”, the Ph-Akt entry was “↓”, the Ph-ERK entry is “↓” and the Ph-JNK result was “↓”. Besides, in assay [1], the Collagen entry is listed as “↓” and the Tenascin-C result was “↓”. In assay [2], the ASMA expression result is “no effect”, the ASMA entry is “—”, the Ph-Akt entry is listed as “↓” and the Ph-ERK result was “↓”. Moreover, in assay [2], the Ph-JNK result is given as “↓”, the Collagen entry is on record as “↓” and the Tenascin-C entry is reported as “↓”.
On to “A: CSD subdomain A (82-88 amino acids) synthesized in fusion with the Antennapedia internalization sequence (DGIWKAS; also: fused to Antennapedia internalization sequence; UniProt Q03135 82-88, looked up, fragment)”, for which the collagen expression entry in assay [3] (setting [5]) and in assay [4] (setting [5]) was “did not inhibit” in each case. Moreover, the ASMA expression result in assay [3] and in assay [4] was “did not inhibit” each time.
Consider “AB: CSD subdomain AB (82-95) synthesized in fusion with the Antennapedia internalization sequence (DGIWKASFTTFTVT; also: fused to Antennapedia internalization sequence; UniProt Q03135 82-95, looked up, fragment)”, for which the “inhibition of collagen expression” value in assay [3] and in assay [4] (5 μM peptide) was “approximately 50%” each time. Besides, the ASMA expression result in assay [3] and in assay [4] was “did not inhibit” each time. Also, in the assay with eNOS, the eNOS activity entry was “also inhibited”.
For “B: CSD subdomain B (89-95) synthesized in fusion with the Antennapedia internalization sequence (FTTFTVT; also: fused to Antennapedia internalization sequence; UniProt Q03135 89-95, looked up, fragment)”, the collagen expression result in assay [3] (setting [5]) and in assay [4] (setting [5]) was “did not inhibit” each time. Also, the ASMA expression result in assay [3] and in assay [4] was “did not inhibit” throughout. The eNOS activity entry with eNOS was “most strongly inhibited”.
Turning to “BC: CSD subdomain BC (89-101) synthesized in fusion with the Antennapedia internalization sequence (FTTFTVTKYWFYR; also: fused to Antennapedia internalization sequence; UniProt Q03135 89-101, looked up, fragment)”, the collagen expression entry in assay [3] (3 μM peptide) and in assay [4] (3 μM peptide) was “completely inhibited” in each case. The “inhibition of ASMA expression” value in assay [3] and in assay [4] (5 μM peptide) was “about 80%” throughout. Further, the ASMA expression entry in assay [3] and in assay [4] was “inhibited” each time. In addition, in the assay on eNOS, the eNOS activity entry was “also inhibited”.
As for “C: CSD subdomain C (96-101) synthesized in fusion with the Antennapedia internalization sequence (KYWFYR; also: fused to Antennapedia internalization sequence; UniProt Q03135 96-101, looked up, fragment)”, in assay [3], the “inhibition of ASMA expression” value was “approximately 50%”, the “inhibition of collagen expression” value is “approximately 50%” and the ASMA expression entry is on record as “inhibited”. Further, the “inhibition of collagen expression” value in assay [4] (5 μM peptide) is on record as “approximately 50%”.
